# System: Mdm-2
# Assay: Immunoblotting of apoptotic markers in HCT116 cells: Mdm-2
# Type: cell-based
# Settings: 24 hours, FIG. 4
# Protocol: Effect of novel compounds on apoptosis was confirmed by immunoblotting analysis of selected apoptotic proteins. For immunoblotting, cell were harvested, washed three times with ice-cold PBS and lysed in a buffer (50 mM Tris, pH 7.4, 250 mM NaCl, 5 mM EDTA, 50 mM NaF, 1 mM Na3VO4, 1% Nonidet P40) containing mixture of protease and phosphatase inhibitors (Sigma-Aldrich). 20 μg of total proteins were separated by SDS-polyacrylamide gel electrophoresis (SDS-PAGE) and transferred onto nitrocellulose membranes. Membranes were blocked in 5% milk and 0.1% Tween 20 in PBS and probed overnight with specific antibodies. Specific antibodies were purchased from SigmaAldrich (anti a-tubulin, clone DM1A), Santa Cruz Biotechnology (anti-Mcl-1, clone S-19; anti-PARP, clone F-2; anti-Mdm-2, clone SMP14; anti-Bcl-2), DAKO Cytomation Cell Signaling (anti-PUMA) or were a generous gift from Dr. B. Vojtesek (anti-p53, clone DO-1). All primary antibodies were diluted in PBS containing 5% powdered milk; 0.1% Tween 20. Peroxidase conjugated rabbit anti-mouse immunoglobulin or porcine anti-rabbit immunoglobulin antisera (DAKO) were used as the secondary antibodies and visualised with ECL reagents (GE-Healthcare Life Sciences).
smiles,measurement,value
CC(C)c1[nH]nc2c(NCc3ccc(-c4ccccn4)cc3)nc(NCC(O)CN)nc12 (stereo not shown) [Compound 45],expression of Mdm-2 (immunoblot),decreased expression

# — patent publication US9957273B2, “5-substituted 7- [4-(2-pyridyl)phenylmethylamino] -3-isopropylpyrazolo4,3-D]pyrimidine derivatives, use thereof as medicaments, and pharmaceutical compositions” (USTAV EXPERIMENTALNI BOTANIKY AV CR, V.V.I., priority 2015, dated 2018)
